Assays:
Assay type in all cases: cell-based
[1] = tested on: A375; experiment: PLX4720 and MAPK inhibitor sensitivity of ORF-expressing A375 (secondary screen); conditions: for effect of ectopic GEF expression on sensitivity to the inhibitor: A375 transfected with GEF ORFS; for sensitivity of A375 to the inhibitor: parental A375 cell line
Experimental: A375 (1.5×10^3) and SKMEL28 cells (3×10^3) were seeded in 96-well plates for 18 h. ORF-expressing lentivirus was added at a 1:10 dilution in the presence of 8 μg/ml polybrene, and centrifuged at 2250 RPM and 37° C. for 1 h. Following centrifugation, virus-containing media was changed to normal growth media and allowed to incubate for 18 h. Twenty-four hours after infection, DMSO (1:1000) or 10× PLX4720 (in DMSO) was added to a final concentration of 100, 10, 1, 0.1, 0.01, 0.001, 0.0001 or 0.00001 μM. Cell viability was assayed using WST-1 (Roche), per manufacturer recommendation, 4 days after the addition of PLX4720.
Cultured cells were seeded into 96-well plates (3,000 cells per well) for all melanoma cell lines; 1,500 cells were seeded for A375. Twenty-four hours after seeding, serial dilutions of the relevant compound were prepared in DMSO added to cells, yielding final drug concentrations ranging from 100 μM to […], with the final volume of DMSO not exceeding 1%. Cells were incubated for 96 h following addition of drug. Cell viability was measured using the WST1 viability assay (Roche). Viability was calculated as a percentage of control (untreated cells) after background subtraction. A minimum of six replicates were performed for each cell line and drug combination. Data from growth-inhibition assays were modeled using a nonlinear regression curve fit with a sigmoid dose-response. […] Sigmoid-response curves that crossed the 50% inhibition point at or above 10 μM have GI50 values annotated as >10 μM. For single-dose studies, the identical protocol was followed, using a single dose of indicated drug (1 μM unless otherwise noted).

[2] = tested on: WM266.4; experiment: Single-dose cell viability of forskolin-treated cells with MAPK-pathway and HDAC inhibitors; conditions: sub-lethal doses; Panobinostat 10 nM, Vorinostat 1.5 μM, Entinostat 1.5 μM; 96 hrs
Experimental: Twenty-four hours after seeding, serial dilutions of the relevant compound were prepared in DMSO to 1000× stocks. Drug stocks were then diluted 1:100 into appropriate growth media and added to cells at a dilution of 1:10 (lx final), yielding drug concentrations ranging from 100 μM to 1×10-5 μM, with the final volume of DMSO not exceeding 1%. When indicated, forskolin (10 μM), IBMX (100 μM), dbcAMP (100 μM) were added concurrent with MAPK-pathway inhibitors. Cells were incubated for 96 h following addition of drug. Cell viability was measured using CellTiterGlo viability assay (Promega). Viability was calculated as a percentage of control (DMSO treated cells). A minimum of six replicates were performed for each cell line and drug combination. Data from growth-inhibition assays were modeled using a nonlinear regression curve fit with a sigmoid dose-response. […] For single-dose studies, WM266.4 were seeded at 5,000 cells/well in 96-well, white-walled, clear bottom plates and the identical protocol (above) was followed, using a single dose of indicated drug.

[3] = tested on: WM266.4; experiment: Immunoblots of MITF, SOX10, acetylated histone H3 and other proteins in melanoma cells; conditions: for acetylated histone H3: WM266.4, 18 hours; for SOX10 and MITF expression: WM266.4, independent of ERK phosphorylation
Experimental: (§1) Adherent cells were washed once with ice-cold PBS and lysed passively with 1% NP-40 buffer [150 mM NaCl, 50 mM Tris pH 7.5, 2 mM EDTA pH 8, 25 mM NaF and 1% NP-40] containing 2× protease inhibitors (Roche) and 1× Phosphatase Inhibitor Cocktails I and II (CalBioChem). Lysates were quantified (Bradford assay), normalized, reduced, denatured (95° C.) and resolved by SDS gel electrophoresis on 4-20% Tris/Glycine gels (Invitrogen). […] After incubation with the appropriate secondary antibody (anti-rabbit, anti-mouse or anti-goat IgG, IRDye-linked; 1:15,000 dilution; IRDye 800CW, 1:20,000 IRDye 680LT, LiCOR), proteins were imaged using an Odyssey CLx scanner (LiCOR).

[4] = tested on: WM266.4; experiment: Quantitative RT/PCR of MITF, FOS, NR4A1 and NR4A2 mRNA; conditions: within 1 hour of treatment, absence of MEK inhibitor
Experimental: mRNA was extracted from WM266.4 using the RNeasy kit (Qiagen) and homogenized using the Qiashredder kit (Qiagen). Total mRNA was used for subsequent reverse transcription using the SuperScript III First-Strand Synthesis SuperMix (Invitrogen). 5 μl of reverse-transcribed cDNA was used for quantitative PCR using SYBR Green PCR Master Mix and gene-specific primers, in quadruplicate, using an ABI PRISM 7900 Real Time PCR System. Primers used for detection were as follows; NR4A2 forward: 5′-GTTCAGGCGCAGTATGGGTC-3′ (SEQ ID NO: 7); NR4A2 reverse: 5′-AGAGTGGTAACTGTAGCTCTGAG-3′ (SEQ ID NO: 8); NR4A1 forward: 5′-ATG CCC TGT ATC CAA GCC C-3′ (SEQ ID NO: 9); NR4A1 reverse: 5′-GTGTAGCCGTCCATGAAGGT-3′ (SEQ ID NO: 10); DUSP6 forward: 5′-CTG CCG GGC GTT CTA CCT-3′ (SEQ ID NO: 11); DUSP6 reverse: 5′-CCAGCCAAGCAATGTACCAAG-3′ (SEQ ID NO: 12); MITF forward: 5′-TGC CCA GGC ATG AAC ACA C-3′ (SEQ ID NO: 13); MITF reverse: 5′-TGGGAAAAATACACGCTGTGAG-3′ (SEQ ID NO: 14); FOS forward: 5′-CACTCCAAGCGGAGACAGAC-3′ (SEQ ID NO: 15); FOS reverse: 5′-AGGTCATCAGGGATCTTGCAG-3′ (SEQ ID NO: 16); TBP forward: 5′-CCCGAAACGCCGAATATAATCC-3′ (SEQ ID No: 17); TBP reverse: 5′-GACTGTTCTTCACTCTTGGCTC-3′ (SEQ ID NO: 18). Relative expression was determined using the comparative CT method (Applied Biosystems).

[5] = tested on: WM266.4; experiment: Western blot of CREB and ERK phosphorylation; conditions: WM266.4, 1 hr treatment
Experimental: as §1

## Cn1cnc2c(F)c(Nc3ccc(Br)cc3Cl)c(C(=O)NOCCO)cc21 [AZD6244]
[1]
  effect of ectopic GEF expression on sensitivity to the inhibitor: decreased sensitivity
  sensitivity of A375 to the inhibitor: sensitive

## Nc1ccccc1NC(=O)c1ccc(CNC(=O)OCc2cccnc2)cc1 [Entinostat]
[2]
  sensitivity of forskolin-treated cells to MAPK-pathway inhibitors: restored sensitivity to MAPK-pathway inhibitors to levels approaching parental cells

## O=S(=O)(NCCNC/C=C/c1ccc(Br)cc1)c1cccc2cnccc12 [H89]
[3]; WM266.4, 10 μM H89 pre-treatment
  effect on forskolin-mediated rescue of MITF protein expression: largely abrogated

## Cc1[nH]c2ccccc2c1CCNCc1ccc(/C=C/C(=O)NO)cc1 [Panobinostat]
[2]
  sensitivity of forskolin-treated cells to MAPK-pathway inhibitors: restored sensitivity to MAPK-pathway inhibitors to levels approaching parental cells
[3]
  acetylated histone H3: increases
  SOX10 and MITF expression: reduction

## Cc1cnc(Nc2ccc(F)cc2Cl)nc1-c1c[nH]c(C(=O)N[C@H](CO)c2cccc(Cl)c2)c1 [VTX-11E]
[1]
  effect of ectopic GEF expression on sensitivity to the inhibitor: decreased sensitivity
  sensitivity of A375 to the inhibitor: sensitive

## O=C(CCCCCCC(=O)Nc1ccccc1)NO [Vorinostat]
[3]
  acetylated histone H3: increases
  SOX10 and MITF expression: reduction

## C=C[C@@]1(C)CC(=O)[C@]2(O)[C@@]3(C)[C@@H](O)CCC(C)(C)[C@@H]3[C@H](O)[C@H](OC(C)=O)[C@@]2(C)O1 [forskolin]
[4]
  increases in mRNA expression of MITF, FOS, NR4A1 and NR4A2: 2- to 20 fold
[5]
  ERK phosphorylation: no effect

From patent US20150141470A1, “DIAGNOSTIC AND TREATMENT METHODS IN PATIENTS HAVING OR AT RISK OF DEVELOPING RESISTANCE TO CANCER THERAPY” (The Broad Institute, Inc., priority 2012, published 2015)
